The source of these data is ChEMBL document CHEMBL1955845, “Antiviral effect of geraniin on human enterovirus 71 in vitro and in vivo” (Bioorg Med Chem Lett, 2012).

Molecules are shown by their SMILES. In brackets after ≈: the same amount, converted by molar mass. Activity calls are given as the source filed them. The rule behind the calls is not given here.

Data set [1] concerns Enterovirus A71. The data set can be described thus: Antiviral activity against Human enterovirus 71 infected in mouse assessed as increase in survival rate. The class given is functional.
For data set [2], the system named is Enterovirus A71. The data set can be described thus: Antiviral activity against C4 type Human enterovirus 71 MP10 infected in ICR mouse assessed as increase in survival rate at 50 mg/kg, ip administered 2 hrs post infection qd for 7 days measured up to 14 days. The format is functional. Particulars: route intraperitoneal.
The subject of data set [3] is Enterovirus A71. The data set can be described thus: Antiviral activity against C4 type Human enterovirus 71 FY0805 infected in human RD cells assessed as inhibition of viral replication by plaque reduction assay. Particulars: Enterovirus A. The format is functional, organism-based. (In general: Plaques are areas of infected cells; plaque reduction assays count them against a control.)

The subject of data set [4] is Enterovirus A71. The data set can be described thus: Antiviral activity against C4 type Human enterovirus 71 MP10 infected in ICR mouse assessed as inhibition of viral replication in muscle at 0.4 mg/kg, ip administered 2 hrs post infection qd for 7 days measured up to 7 days by qRT-PCR analysis. Conditions: Muscle tissue. Details: dose 0.4 mg/kg. The class given is functional, organism-based. On the technique in general: In qPCR the cycle at which signal appears reflects the starting amount.

For another data set, the system named is Mus musculus. The data set can be described thus: Toxicity in Human enterovirus 71 MP10 infected ICR mouse at 0.4 to 1 mg/kg, ip qd for 7 days measured up to 14 days. The format is organism-based. Details: dose 0.4-1 mg/kg, route intraperitoneal. Particulars: in vivo.
For data set [5], the system named is Enterovirus A71. Kind of data set: Antiviral activity against C4 type Human enterovirus 71 MP10 infected in ICR mouse assessed as delay in appearance of infection symptoms at 0.4 mg/kg, ip administered 2 hrs post infection qd for 7 days measured up to 14 days. The class given is functional, organism-based. Details: dose 0.4 mg/kg.
Data set [6] has as its system Enterovirus A71. Kind of data set: Antiviral activity against C4 type Human enterovirus 71 FY0805 infected in human RD cells assessed as inhibition of infectious virus yeild at 20 ug/ml treated 2 hrs post infection measured after 32 to 72 hrs by TCID50 assay relative to control. The format is functional, organism-based.
Data set [7] concerns Enterovirus A71. The data set can be described thus: Antiviral activity against C4 type Human enterovirus 71 FY0805 infected in human RD cells assessed as inhibition of […] at 20 ug/ml treated 2 hrs post infection measured after 32 to 72 hrs by qRT-PCR analysis relative to control. The format is functional, organism-based. On the technique in general: Damage to the host cells serves as the signal in cytopathic effect assays.

Data set [8] relates to Enterovirus A71. The data set can be described thus: Antiviral activity against C4 type Human enterovirus 71 MP10 infected in ICR mouse assessed as increase in survival rate at 0.4 mg/kg, ip administered 2 hrs post infection qd for 7 days measured up to 14 days. The format is functional. Conditions: route intraperitoneal.
The test system of data set [9] is Enterovirus A71. Kind of data set: Antiviral activity against C4 type Human enterovirus 71 MP10 infected in ICR mouse assessed as delay in paralysis at 0.4 mg/kg, ip administered 2 hrs post infection qd for 7 days measured up to 14 days. Details: dose 0.4 mg/kg. The format is functional, organism-based.
The subject of data set [10] is Enterovirus A71. The data set can be described thus: Antiviral activity against C4 type Human enterovirus 71 MP10 infected in ICR mouse assessed as disappearance of ruffled hair at 0.4 mg/kg, ip administered 2 hrs post infection qd for 7 days measured up to 14 days. The format is functional, organism-based. Details: dose 0.4 mg/kg.
Data set [11] in a line: Selectivity index, ratio of CC50 for human RD cells to IC50 for C4 type Human enterovirus 71 FY0805. The class given is functional.
Data set [12] has as its system Enterovirus A71. Kind of data set: Antiviral activity against C4 type Human enterovirus 71 MP10 infected in ICR mouse assessed as recovery at 0.4 mg/kg, ip administered 2 hrs post infection qd for 7 days measured up to 14 days. Also on record: dose 0.4 mg/kg. The class given is functional, organism-based.
Data set [13] in a line: Cytotoxicity against human RD cells. The format is cell-based.
Data set [14] relates to Enterovirus A71. The data set can be described thus: Antiviral activity against C4 type Human enterovirus 71 MP10 infected in ICR mouse assessed as increase in survival rate at 1 mg/kg, ip administered 2 hrs post infection qd for 7 days measured up to 14 days. The class given is functional. Particulars: route intraperitoneal.

Take `O[C@H]1[C@H]2c3cc4c(cc3CN3CCC(=C[C@@H]1O)[C@H]23)OCO4` [LYCORINE]: in the data set with Enterovirus A71 [1], the Activity stood at 18%.

The term IC50 denotes the concentration that gives 50% inhibition. With `NC(=O)c1ncn([C@@H]2O[C@H](CO)[C@@H](O)[C@H]2O)n1` [RIBAVIRIN], the Activity in the data set with Enterovirus A71 [2] is 5%. Moreover, the IC50 in the data set on Enterovirus A71 [3] is 60 µg/mL (≈ 246 µM).

The CC50 is the concentration that lowers cell viability or growth by half. `O=C1O[C@H]2[C@@H]3OC(=O)c4cc(O)c(O)c(O)c4-c4c(cc(O)c(O)c4O)C(=O)OC[C@H]2O[C@@H](OC(=O)c2cc(O)c(O)c(O)c2)[C@@H]3OC(=O)c2cc(O)c(O)c3c2[C@@H]2C1=CC(=O)[C@](O)(O3)C2(O)O` [GERANIIN]: the inhibition entry in the data set with Enterovirus A71 [4], in the data set on Enterovirus A71 [6] and in the data set on Enterovirus A71 [7] was “Active” in each case. Moreover, the Activity result in the data set on Mus musculus was “Non-toxic”; in the data set on Enterovirus A71 [8], 35%; in the data set with Enterovirus A71 [14] it was 40%. In addition, the outcome in the data set with Enterovirus A71 [5], with Enterovirus A71 [9], in the data set on Enterovirus A71 [10] and in the data set with Enterovirus A71 [12] was Active. Also, in the data set with Enterovirus A71 [3], the IC50 came to 10 µg/mL (≈ 10.5 µM). In addition, the “Ratio CC50/IC50” value in data set [11] is reported as 20. This compound also had a CC50 in data set [13] of 200 µg/mL (≈ 210 µM).
